Measured values from patent publication US5817455A, “Method for in vitro inactivation of RNase S” (Novagen, Inc., priority 1996, dated 1998).

Legend:
S-protein = conditions: cited from earlier work
Ribonuclease S = Ribonuclease S activity, degradation of yeast polymeric RNA (absorbance at 255 nm); type: biochemical, bovine; conditions: for effect on RNase S activity (in words): consecutive addition to S-protein + bS15 reaction mix; for Activity: initial velocity relative to S-protein (50 ng) plus S15 (10 μg) = 100%, consecutive addition of S-protein (50 ng), bS15 (approx. 5 μg), streptavidin (10 μg), S15 (5 μg), 75 ug/mL yeast RNA, pH 7.0, 25° C., 2 minutes
Description: Ribonuclease S activity was measured in terms of degradation of yeast polymeric RNA. Degradation was monitored as an increase in absorbance at 255 nm of the reaction cocktail. The reaction cocktail included 50 mM imidazole.HCl buffer, pH 7.0, 0.1 M NaCl, and 75 ug/mL yeast RNA, in a volume of 800 uL. The change in absorbance was monitored at 25° C. for 2 minutes following the consecutive addition of S-protein (50 ng), bS15 (approx. 5 μg), streptavidin (10 μg), and authentic S15 (5 μg).
For comparison, the degradative activity in a reaction mix containing S-protein (50 ng) plus S15 (10 μg) is defined to be 100%. […] The initial velocity of each reaction was determined from the initial slope of a plot of absorbance v. time.

Row | Substance | binding to S-protein compared with intact S-peptide (S-protein; truncated S-peptide, first 15 residues) | effect on RNase S activity (in words) (Ribonuclease S) | Activity (Ribonuclease S) [%] | Kd (S-protein; S-peptide and S-protein, read-out: dissociation constant) [nM]
1 | S15: truncated S-peptide formed from the first 15 residues of the S-peptide, SEQ ID NO:1 (KETAAAKFERQHMDS) | binds equally well | RNase S activity could be reconstituted | 40 | 
2 | S-peptide: residues 1-20 of RNase A, subtilisin cleavage product |  |  |  | 1
3 | streptavidin |  | sufficient to inactivate RNase S | < 0.01 | 
